Laboratory results as given in the supplement of paper PMC10307832.

What was measured:
Experiment in all cases: relative viability (nuclei count vs DMSO), 5 days (fraction); higher = more cells survive
Bexarotene + Luminespib = compound: C=C(c1ccc(C(=O)O)cc1)c1cc2c(cc1C)C(C)(C)CCC2(C)C [Bexarotene] + CCNC(=O)c1noc(-c2cc(C(C)C)c(O)cc2O)c1-c1ccc(CN2CCOCC2)cc1 [Luminespib] (partner 0.01 µM)
Summary of the method: (§1)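 One day after seeding in 1536-well plates, lung cancer cell lines were dosed by pin tool. Dosing was either single-drug or a fixed anchor-drug dose plus five library-drug doses (not always all listed) in √10 steps. After 5 days, nuclei were stained in one fix-and-stain step and counted on 4× images, and relative viability is the nuclei count of treated wells over that of vehicle wells, given as the median of duplicate plates.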

Bexarotene + Bortezomib = compound: C=C(c1ccc(C(=O)O)cc1)c1cc2c(cc1C)C(C)(C)CCC2(C)C [Bexarotene] + CC(C)C[C@H](NC(=O)[C@H](Cc1ccccc1)NC(=O)c1cnccn1)B(O)O [Bortezomib] (partner 0.002 µM)
Summary of the method: as §1

Bexarotene + Dasatinib = compound: C=C(c1ccc(C(=O)O)cc1)c1cc2c(cc1C)C(C)(C)CCC2(C)C [Bexarotene] + Cc1nc(Nc2ncc(C(=O)Nc3c(C)cccc3Cl)s2)cc(N2CCN(CCO)CC2)n1 [Dasatinib] (partner 0.075 µM)
Summary of the method: as §1

Bexarotene + Palbociclib = compound: C=C(c1ccc(C(=O)O)cc1)c1cc2c(cc1C)C(C)(C)CCC2(C)C [Bexarotene] + CC(=O)c1c(C)c2cnc(Nc3ccc(N4CCNCC4)cn3)nc2n(C2CCCC2)c1=O [Palbociclib] (partner 0.5 µM)
Summary of the method: as §1

Cell Line | relative viability (Bexarotene + Luminespib; first compound 0.08 µM) | relative viability (Bexarotene + Luminespib; first compound 0.253 µM) | relative viability (Bexarotene + Luminespib; first compound 0.8 µM) | relative viability (Bexarotene + Luminespib; first compound 2.53 µM) | relative viability (Bexarotene + Luminespib; first compound 8 µM) | relative viability (Bexarotene + Bortezomib; first compound 0.08 µM) | relative viability (Bexarotene + Bortezomib; first compound 0.253 µM) | relative viability (Bexarotene + Bortezomib; first compound 0.8 µM) | relative viability (Bexarotene + Bortezomib; first compound 2.53 µM) | relative viability (Bexarotene + Bortezomib; first compound 8 µM) | relative viability (Bexarotene + Dasatinib; first compound 0.08 µM) | relative viability (Bexarotene + Dasatinib; first compound 0.253 µM) | relative viability (Bexarotene + Dasatinib; first compound 0.8 µM) | relative viability (Bexarotene + Dasatinib; first compound 2.53 µM) | relative viability (Bexarotene + Dasatinib; first compound 8 µM) | relative viability (Bexarotene + Palbociclib; first compound 0.08 µM) | relative viability (Bexarotene + Palbociclib; first compound 0.253 µM) | relative viability (Bexarotene + Palbociclib; first compound 0.8 µM) | relative viability (Bexarotene + Palbociclib; first compound 2.53 µM) | relative viability (Bexarotene + Palbociclib; first compound 8 µM)
HOP-62 | 1.07 | 1.1 | 1.01 | 1.09 | 0.978 | 0.611 | 1.05 | 0.916 | 0.645 | 0.81 | 0.677 | 0.641 | 0.428 | 0.606 | 0.57 | 0.502 | 0.516 | 0.451 | 0.409 | 0.491
NCI-H1915 | 0.805 | 0.742 | 0.748 | 0.714 | 0.724 | 1 | 0.989 | 0.896 | 0.993 | 0.911 | 0.391 | 0.319 | 0.292 | 0.297 | 0.297 | 0.555 | 0.5 | 0.442 | 0.533 | 0.423
NCI-H3122 | 0.0956 | 0.0599 | 0.0864 | 0.0982 | 0.0732 | 1.09 | 1.05 | 1.09 | 1.15 | 1.13 | 0.755 | 0.959 | 0.729 | 0.768 | 0.701 | 0.225 | 0.216 | 0.187 | 0.254 | 0.23
NCI-H1651 | 1.06 | 0.881 | 0.938 | 0.845 | 0.911 | 1.14 | 0.843 | 0.965 | 0.944 | 1.04 | 0.518 | 0.551 | 0.363 | 0.458 | 0.374 | 0.531 | 0.521 | 0.533 | 0.537 | 0.534
NCI-H838 | 0.368 | 0.377 | 0.269 | 0.329 | 0.321 | 0.995 | 1.16 | 0.803 | 0.777 | 0.949 | 0.299 | 0.301 | 0.339 | 0.346 | 0.381 | 0.23 | 0.209 | 0.176 | 0.216 | 0.245
SK-LU-1 | 0.201 | 0.188 |  | 0.177 | 0.173 | 1.23 | 1.6 | 0.88 | 1.32 | 1.05 | 0.201 | 0.215 |  | 0.2 | 0.203 | 0.419 | 0.394 | 0.326 | 0.393 | 0.37
NCI-H441 | 0.373 | 0.384 | 0.314 | 0.295 | 0.377 | 0.472 | 0.633 | 0.592 |  | 0.619 | 0.857 | 0.701 | 1 | 0.717 | 0.579 | 0.295 | 0.228 | 0.256 | 0.243 | 0.23
NCI-H650 | 0.779 | 0.828 | 0.877 | 0.898 | 0.742 | 0.898 | 1.08 | 0.847 | 0.624 | 0.726 | 0.475 | 0.562 | 0.441 | 0.408 | 0.412 | 0.306 | 0.286 | 0.294 | 0.311 | 0.339
